According to ChEMBL document CHEMBL1127832, “Furoxans as nitric oxide donors. 4-Phenyl-3-furoxancarbonitrile: thiol-mediated nitric oxide release and biological evaluation” (J Med Chem, 1994):

Tests used:
[1] = species: Rattus norvegicus; test: Compound was tested for percent recovery of noradrenergic tone after washing aortic preparations with fresh Kreb's buffer; assay type: functional; conditions: Aorta
[2] = species: Rattus norvegicus; test: Compound was tested for its vasodilator effects on endothelium-denuded strips of rat aorta precontracted with noradrenaline; assay type: functional

Compound	Recovery [1] [%]	EC50 [2] [nM]
N#Cc1c(-c2ccccc2)no[n+]1[O-] [FUROXAN]	66	
O=[N+]([O-])OCC(CO[N+](=O)[O-])O[N+](=O)[O-] [NITROGLYCERIN]		22
